Measurements taken from PMC12786355 (Biochimica et biophysica acta. Proteins and proteomics, 2024).

What was measured:
[1] = biological target: T1, MCR-C (C-terminal domain of malonyl-CoA reductase) (Chloroflexus aurantiacus, UniProt A9WIU3); assay: NADPH absorbance at […] nm, dead-end inhibition; format: biochemical
[2] = biological target: T1, MCR-C (C-terminal domain of malonyl-CoA reductase); assay: NADPH absorbance at […] nm, product inhibition; format: biochemical

| SMILES | Ki [1] [µM] | Ki [2] [µM] |
| --- | --- | --- |
| O=CC(=O)O [glyoxylic acid] | 6 ± 0.8 |  |
| CC(C)(COP(=O)(O)OP(=O)(O)OC[C@H]1O[C@@H](n2cnc3c(N)ncnc32)[C@H](O)[C@@H]1OP(=O)(O)O)[C@@H](O)C(=O)NCCC(=O)NCCS [CoA] |  | 238 ± 14 |
| NC(=O)c1ccc[n+]([C@@H]2O[C@H](COP(=O)(O)OP(=O)(O)OC[C@H]3O[C@@H](n4cnc5c(N)ncnc54)[C@H](OP(=O)(O)O)[C@@H]3O)[C@@H](O)[C@H]2O)c1 [NADP^+] |  | 104 ± 15 |
